We go through nine compounds from patent publication US11517568B2, “Compounds and methods for treating nematode infections” (The Governing Council of The University of Toronto, priority 2018, dated 2022).

Each structure is given as a SMILES string.

One test concerns L3 animals. Description: Abnormal locomotory behaviour of L3 animals on solid agar (extended SAR). The note with it: Caenorhabditis elegans; 3.75 uM, 1 h exposure, L3, mean of 4 replicates; read-out: % any phene 1 h (conc.) 3.75. It counts as in vivo, Caenorhabditis elegans. Here is the method:
20 animals were scored after either 1, 6 or 24 hours of exposure to drug (as indicated) per replicate. […] Data are reported as the mean % of animals with abnormal phenotype over 4 independent replicates.
`O=[N+]([O-])c1ccc(N2CCN(C3CCCCCC3)CC2)cc1` [Ir]: the pest or weed control at 3.75 µM turned out to be 43.3%.
For the compound `c1ccc(N2CCN(C3CCCCCC3)CC2)cc1` [Iff], the pest or weed control at 3.75 µM was found to be 24.2%.
Take `Fc1ccc(N2CCN(CC3CC=CCC3)CC2)cc1` (centres unmarked) [Iy]: the pest or weed control at 3.75 µM was found to be 22.5%.
Regarding `c1ccc(N2CCN(CC3CCCC3)CC2)cc1` [Ihh], the pest or weed control at 3.75 µM came out at 4.2%.
As for `CC1CCC(N2CCN(c3ccccc3)CC2)CC1` (centres unmarked) [Iz], the pest or weed control at 3.75 µM amounted to 60.8%.

The test is the same for the next values; noted with them: Caenorhabditis elegans; 3.75 uM, 6 h exposure, L3, mean of 4 replicates; read-out: % any phene 6 h (conc.) 3.75.
As to `Clc1ccc(N2CCN(C3CCCCCC3)CC2)cc1` [Idd], the pest or weed control at 3.75 µM worked out at 86.7%.
Still for that read-out and setting: the result for `O=[N+]([O-])c1ccc(N2CCN(C3CCCCCC3)CC2)cc1` [Ir] reads 9.2%; that for `c1ccc(N2CCN(C3CCCCCC3)CC2)cc1` [Iff], 6.7%.
As for `Fc1ccc(N2CCN(CC3CC=CCC3)CC2)cc1` (centres unmarked) [Iy], the pest or weed control at 3.75 µM stood at 0%.
For the compound `CC1CCC(N2CCN(c3ccc(F)cc3)CC2)CC1` (centres unmarked) [Ibb], the pest or weed control at 3.75 µM turned out to be 5%.
With `c1ccc(N2CCN(CC3CCCC3)CC2)cc1` [Ihh], the pest or weed control at 3.75 µM was determined as 0%.
With `CC1CCC(N2CCN(c3ccccc3)CC2)CC1` (centres unmarked) [Iz], the pest or weed control at 3.75 µM was 0%.

Still in this test, the particulars now being: Caenorhabditis elegans; 3.75 uM, 24 h exposure, L3, mean of 4 replicates; read-out: % any phene 24 h (conc.) 3.75.
Turning to `Clc1ccc(N2CCN(C3CCCCCC3)CC2)cc1` [Idd], the pest or weed control at 3.75 µM came out at 34.2%.
With `O=[N+]([O-])c1ccc(N2CCN(C3CCCCCC3)CC2)cc1` [Ir], the pest or weed control at 3.75 µM was found to be 0%.
Same read-out and setting: the result for `c1ccc(N2CCN(C3CCCCCC3)CC2)cc1` [Iff] reads 0%.
For `Fc1ccc(N2CCN(CC3CC=CCC3)CC2)cc1` (centres unmarked) [Iy], the pest or weed control at 3.75 µM is 0%.
`CC1CCC(N2CCN(c3ccc(F)cc3)CC2)CC1` (centres unmarked) [Ibb]: the pest or weed control at 3.75 µM was determined as 0%.
Turning to `c1ccc(N2CCN(CC3CCCC3)CC2)cc1` [Ihh], the pest or weed control at 3.75 µM came out at 0%.
In the case of `CC1CCC(N2CCN(c3ccccc3)CC2)CC1` (centres unmarked) [Iz], the pest or weed control at 3.75 µM came out at 0%.

Still in this test, the particulars now being: Caenorhabditis elegans; 15 uM, 1 h exposure, L3, mean of 4 replicates; read-out: % any phene 1 h (conc.) 15.
For the compound `Clc1ccc(N2CCN(C3CCCCCC3)CC2)cc1` [Idd], the pest or weed control at 15 µM is 100%.
Consider `c1ccc(N2CCN(C3CCCCCC3)CC2)cc1` [Iff], for which the pest or weed control at 15 µM worked out at 98.3%.
For the compound `Fc1ccc(N2CCN(CC3CC=CCC3)CC2)cc1` (centres unmarked) [Iy], the pest or weed control at 15 µM stood at 77.5%.
Regarding `c1ccc(N2CCN(CC3CCCC3)CC2)cc1` [Ihh], the pest or weed control at 15 µM worked out at 70%.
On the same count and under the same terms, in the case of `CC1CCC(N2CCN(c3ccccc3)CC2)CC1` (centres unmarked) [Iz] it was 96.7%.

The test is the same for the next values; noted with them: Caenorhabditis elegans; 15 uM, 6 h exposure, L3, mean of 4 replicates; read-out: % any phene 6 h (conc.) 15.
Regarding `Clc1ccc(N2CCN(C3CCCCCC3)CC2)cc1` [Idd], the pest or weed control at 15 µM amounted to 100%.
In the case of `O=[N+]([O-])c1ccc(N2CCN(C3CCCCCC3)CC2)cc1` [Ir], the pest or weed control at 15 µM amounted to 88.3%.
For `c1ccc(N2CCN(C3CCCCCC3)CC2)cc1` [Iff], the pest or weed control at 15 µM worked out at 28.3%.
In the case of `Fc1ccc(N2CCN(CC3CC=CCC3)CC2)cc1` (centres unmarked) [Iy], the pest or weed control at 15 µM worked out at 35%.
`CC1CCC(N2CCN(c3ccc(F)cc3)CC2)CC1` (centres unmarked) [Ibb]: the pest or weed control at 15 µM turned out to be 75.8%.
Turning to `c1ccc(N2CCN(CC3CCCC3)CC2)cc1` [Ihh], the pest or weed control at 15 µM amounted to 1.7%.
As to `CC1CCC(N2CCN(c3ccccc3)CC2)CC1` (centres unmarked) [Iz], the pest or weed control at 15 µM was determined as 6.7%.

Staying with this test, now noted: Caenorhabditis elegans; 15 uM, 24 h exposure, L3, mean of 4 replicates; read-out: % any phene 24 h (conc.) 15.
As for `Clc1ccc(N2CCN(C3CCCCCC3)CC2)cc1` [Idd], the pest or weed control at 15 µM stood at 98.3%.
Turning to `O=[N+]([O-])c1ccc(N2CCN(C3CCCCCC3)CC2)cc1` [Ir], the pest or weed control at 15 µM is 30%.
As to `c1ccc(N2CCN(C3CCCCCC3)CC2)cc1` [Iff], the pest or weed control at 15 µM was determined as 0%.
With `Fc1ccc(N2CCN(CC3CC=CCC3)CC2)cc1` (centres unmarked) [Iy], the pest or weed control at 15 µM is 0%.
For `CC1CCC(N2CCN(c3ccc(F)cc3)CC2)CC1` (centres unmarked) [Ibb], the pest or weed control at 15 µM stood at 13.3%.
For `c1ccc(N2CCN(CC3CCCC3)CC2)cc1` [Ihh], the pest or weed control at 15 µM came out at 0%.
`CC1CCC(N2CCN(c3ccccc3)CC2)CC1` (centres unmarked) [Iz]: the pest or weed control at 15 µM stood at 0%.

The same test, now with this note: Caenorhabditis elegans; 60 uM, 1 h exposure, L3, mean of 4 replicates; read-out: % any phene 1 h (conc.) 60.
Consider `Clc1ccc(N2CCN(C3CCCCCC3)CC2)cc1` [Idd], for which the pest or weed control at 60 µM came to 100%.
The same measure, in the same setting: the result for `O=[N+]([O-])c1ccc(N2CCN(C3CCCCCC3)CC2)cc1` [Ir] reads 100%.
Take `c1ccc(N2CCN(C3CCCCCC3)CC2)cc1` [Iff]: the pest or weed control at 60 µM was 100%.
For `Fc1ccc(N2CCN(CC3CC=CCC3)CC2)cc1` (centres unmarked) [Iy], the pest or weed control at 60 µM was 100%.
Take `CC1CCC(N2CCN(c3ccc(F)cc3)CC2)CC1` (centres unmarked) [Ibb]: the pest or weed control at 60 µM worked out at 100%.
For the compound `c1ccc(N2CCN(CC3CCCC3)CC2)cc1` [Ihh], the pest or weed control at 60 µM worked out at 100%.
The same measure, in the same setting: in the case of `CC1CCC(N2CCN(c3ccccc3)CC2)CC1` (centres unmarked) [Iz] it was 99.2%.

Still in this test, the particulars now being: Caenorhabditis elegans; 60 uM, 6 h exposure, L3, mean of 4 replicates; read-out: % any phene 6 h (conc.) 60.
Regarding `Clc1ccc(N2CCN(C3CCCCCC3)CC2)cc1` [Idd], the pest or weed control at 60 µM came to 97.5%.
Consider `O=[N+]([O-])c1ccc(N2CCN(C3CCCCCC3)CC2)cc1` [Ir], for which the pest or weed control at 60 µM turned out to be 100%.
On to `c1ccc(N2CCN(C3CCCCCC3)CC2)cc1` [Iff], for which the pest or weed control at 60 µM worked out at 51.7%.
Turning to `Fc1ccc(N2CCN(CC3CC=CCC3)CC2)cc1` (centres unmarked) [Iy], the pest or weed control at 60 µM was determined as 99.2%.
Turning to `CC1CCC(N2CCN(c3ccc(F)cc3)CC2)CC1` (centres unmarked) [Ibb], the pest or weed control at 60 µM was 100%.
On to `c1ccc(N2CCN(CC3CCCC3)CC2)cc1` [Ihh], for which the pest or weed control at 60 µM was found to be 53.3%.
Still for that read-out and setting: the result for `CC1CCC(N2CCN(c3ccccc3)CC2)CC1` (centres unmarked) [Iz] reads 85%.

Staying with this test, now noted: Caenorhabditis elegans; 60 uM, 24 h exposure, L3, mean of 4 replicates; read-out: % any phene 24 h (conc.) 60.
In the case of `Clc1ccc(N2CCN(C3CCCCCC3)CC2)cc1` [Idd], the pest or weed control at 60 µM is 97.5%.
On the same count and under the same terms, the result for `O=[N+]([O-])c1ccc(N2CCN(C3CCCCCC3)CC2)cc1` [Ir] reads 100%; that for `c1ccc(N2CCN(C3CCCCCC3)CC2)cc1` [Iff], 0%.
On to `Fc1ccc(N2CCN(CC3CC=CCC3)CC2)cc1` (centres unmarked) [Iy], for which the pest or weed control at 60 µM was 58.3%.
In the case of `CC1CCC(N2CCN(c3ccc(F)cc3)CC2)CC1` (centres unmarked) [Ibb], the pest or weed control at 60 µM was 100%.
Take `c1ccc(N2CCN(CC3CCCC3)CC2)cc1` [Ihh]: the pest or weed control at 60 µM came to 5%.
As to `CC1CCC(N2CCN(c3ccccc3)CC2)CC1` (centres unmarked) [Iz], the pest or weed control at 60 µM was 14.2%.

The next test concerns wild type fourth-stage C. elegans larvae (L4s). Description: Locomotory defects (coiled and/or paralysis) in wild type fourth-stage C. elegans larvae on solid substrate. Format: in vivo, Caenorhabditis elegans. The note with it: 60 μM, after 60 min on solid substrate, L4 C. elegans. As to the method:
A preliminary first round of SAR analyses using analogs of exemplary compound Ia was performed and the analogs' ability to induce locomotory defects in wild type fourth-stage C. elegans larvae (L4s) was tested.
If phenotype is observed, a dose-response analysis is performed.
For the compound `O=[N+]([O-])c1ccc(N2CCN(CC3CCCC3)CC2)cc1` [If], the “Activity (%): percent of animals that show coiled and/or paralysis” value came out at 98% +/− 1.9.
For the compound `C1CNCCN1` [Piperazine, reference compound], the “Activity (%): percent of animals that show coiled and/or paralysis” value worked out at 0.00%.

Staying with this test, now noted: SAR comparison with compound Ia analogs.
With `O=[N+]([O-])c1ccc(N2CCN(CC3CCCC3)CC2)cc1` [If], the “rank among analogs for inducing locomotory defects” value is “most potent analog to date”.
